The source of these data is US9951044B2, “Quinazoline derivatives and their use as DNA methyltransferase inhibitors” (PIERRE FABRE MEDICAMENT, priority 2013, dated 2018).

Molecules are shown by their SMILES.

The target of assay [1] is T1, His-DNMT1 (182 kDa, human) (Homo sapiens, UniProt P26358).
T1 construct: His; made in house
In words: DNMT1 assay ([methyl-3H] SAM Flashplate). It counts as biochemical. As to conditions: for inhibition at 100 µM: compound at 100 μM, read-out: DNMT1 (% of inhibition) 100 μM; for inhibition at 32 µM: compound at 32 μM, read-out: DNMT1 (% of inhibition) 32 μM. As to the method:
His-DNMT1 (182 kDa, human) was cloned, expressed and purified as described in Halby et al. (ChemBioChem 2012, 13, 157-65). The reaction was performed in a 10 μL total reaction volume in low volume NBS™ 384-well microplates (Corning), containing the tested compound (up to 1% DMSO), 1 μM of a SAM/[methyl-^3H] SAM (3 TBq/mmol, PerkinElmer) mix in a ratio of 3-to-1 (isotopic dilution 1*:3), 0.3 μM of biotinylated hemimethylated DNA duplex (5′-GATmCGCmCGATGmCGmCGAATmCGmCGAT mCGATGmCGAT-3′ and BIOT-5′-[…] ATC-3′), and 90 nM of DNMT1 in methylation buffer (20 mM HEPES pH 7.2, 1 mM EDTA, 50 mM KCl, 25 μg/mL BSA). The reaction was incubated at 37° C. for 2 hours. 8 μL are then transferred into a streptavidin 96-well scintillant coated Flashplate™ (PerkinElmer) containing 190 μL of 20 μM SAH in 50 mM Tris-HCl pH 7.4. The Flashplate™ was agitated at room temperature for 1 hour, washed three times with 200 μL of 0.05% Tween®-20 in 50 mM Tris-HCl pH 7.4, and read in 200 μL of 50 mM Tris-HCl pH 7.4 on TopCount NXT (PerkinElmer).

Assay [2] has as its target T2, human C-terminal DNMT3A (a.a. 623-908) (Homo sapiens, UniProt Q9Y6K1).
T2 construct: The human C-terminal DNMT3A (a.a. 623-908); made in house
In words: DNMT3A assay (restriction-based fluorescence). The format is biochemical. As to conditions: for inhibition at 32 µM: compound at 32 μM, read-out: DNMT3A (% of inhibition) 32 μM; for inhibition at 10 µM: compound at 10 μM, read-out: DNMT3A (% of inhibition) 10 μM; for inhibition at 20 µM: compound at 20 μM; for EC50: concentration range in triplicates. The source says:
DNMT3A enzyme inhibition was adapted from the restriction-based fluorescence assay protocol described in Ceccaldi et al. (ChemBioChem 2011, 12, 1337-45). Briefly, a 5′-labelled biotin oligonucleotide is hybridized to its complementary strand labelled with 6-carboxyfluorescein at the 3′-end into a 384 well microplate (black Optiplates; Perkin Elmer) pre-coated with avidin. The duplex contains a unique CpG site overlapping with a restriction site of a methylation sensitive restriction enzyme. The human C-terminal DNMT3A (a.a. 623-908), produced as described in Gros et al. (Nucleic Acids Research 2013 Aug. 25), was added in each well (200 ng/well) and mixed with the chemical compounds at desired concentrations and freshly prepared AdoMet (20 μM final concentration) to start the reaction in a total volume of 50 μL. After 1 hour incubation at 37° C. each well were washed three times with PBS, Tween-20 0.05%, NaCl (500 mM) and three more times with PBST. Specific fluorescent signals were detected with the methylation-sensitive restriction enzyme HpyCH4IV (NEB) as described and measured on a Perkin Elmer Envision detector. The percentage of inhibition is reported. The formula used to calculate the percentage of inhibition is [(X−Y)/X]×100, where X is the signal determined in the absence of the inhibitor and Y is the signal obtained in the presence of the inhibitor. The concentration at which 50% of efficacy of inhibition is observed (EC50) was determined by analysis of a concentration range of the tested compound in triplicates. The non-linear regression fittings with sigmoidal dose-response (variable slope) were performed with GraphPad Prism 4.03 (GraphPad Software).

For assay [3], the system named is Karpas299 human leukemia cells. The experiment in a line: Anti-proliferative activity on Karpas 299 cells (ATPLite). It counts as cell-based. As to conditions: KARPAS-299, 96 h, treatment days 1-3, viability day 4, mean of at least two experiments, 95% confidence interval in brackets. As to the method:
(§1) KG-1 and Karpas299 human leukemia cells were obtained from the ATCC (USA) and cultivated in RPMI 1640 medium (with HEPES and Glutamine, BE12-115F, Lonza, France) supplemented with, respectively, 20% and 15% foetal calf serum (Lonza, France), at 37° C. and under 5% CO2. To measure the anti-proliferative properties of tested molecules, 2×10^4 cells are seeded at day 0 in a 96 wells plate. The compounds to be tested, stored at −20° C. as 10^−2 M stock solution in 100% DMSO, are freshly diluted on day 1 in RPMI 1640 medium, before adding a dose range of 3.2 nM to 10 μM to the cells. This treatment is repeated on day 2 and 3, and on day 4 cell viability is assessed using the ATPLite kit from Perkin (ATPlite 1 Step Luminescence Assay System, ref 3016739), following the provider instructions. The raw data are analyzed with GraphPad Prism software (v4.03) to generate EC50 values corresponding to the compound concentrations giving 50% reduction in cell viability. The values presented are the mean results of at least two independent experiments.
(In general: Cellular ATP, detected with luciferase, serves as a proxy for viable cell number.)

The subject of assay [4] is KG-1 human leukemia cells. In words: Anti-proliferative activity on KG-1 cells (ATPLite). The format is cell-based. As to conditions: KG-1, 96 h, treatment days 1-3, viability day 4, mean of at least two experiments, 95% confidence interval in brackets. As to the method:
as §1

T2 sequence (Q9Y6K1 627-912 limits assumed): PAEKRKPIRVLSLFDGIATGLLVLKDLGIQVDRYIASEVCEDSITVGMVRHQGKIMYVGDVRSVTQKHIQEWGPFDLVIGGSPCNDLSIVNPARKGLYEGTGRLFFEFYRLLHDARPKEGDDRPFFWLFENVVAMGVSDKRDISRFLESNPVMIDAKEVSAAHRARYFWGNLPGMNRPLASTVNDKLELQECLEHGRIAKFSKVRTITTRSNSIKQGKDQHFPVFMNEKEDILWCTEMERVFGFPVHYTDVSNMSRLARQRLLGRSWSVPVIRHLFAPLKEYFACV
T1 sequence (P26358 whole entry): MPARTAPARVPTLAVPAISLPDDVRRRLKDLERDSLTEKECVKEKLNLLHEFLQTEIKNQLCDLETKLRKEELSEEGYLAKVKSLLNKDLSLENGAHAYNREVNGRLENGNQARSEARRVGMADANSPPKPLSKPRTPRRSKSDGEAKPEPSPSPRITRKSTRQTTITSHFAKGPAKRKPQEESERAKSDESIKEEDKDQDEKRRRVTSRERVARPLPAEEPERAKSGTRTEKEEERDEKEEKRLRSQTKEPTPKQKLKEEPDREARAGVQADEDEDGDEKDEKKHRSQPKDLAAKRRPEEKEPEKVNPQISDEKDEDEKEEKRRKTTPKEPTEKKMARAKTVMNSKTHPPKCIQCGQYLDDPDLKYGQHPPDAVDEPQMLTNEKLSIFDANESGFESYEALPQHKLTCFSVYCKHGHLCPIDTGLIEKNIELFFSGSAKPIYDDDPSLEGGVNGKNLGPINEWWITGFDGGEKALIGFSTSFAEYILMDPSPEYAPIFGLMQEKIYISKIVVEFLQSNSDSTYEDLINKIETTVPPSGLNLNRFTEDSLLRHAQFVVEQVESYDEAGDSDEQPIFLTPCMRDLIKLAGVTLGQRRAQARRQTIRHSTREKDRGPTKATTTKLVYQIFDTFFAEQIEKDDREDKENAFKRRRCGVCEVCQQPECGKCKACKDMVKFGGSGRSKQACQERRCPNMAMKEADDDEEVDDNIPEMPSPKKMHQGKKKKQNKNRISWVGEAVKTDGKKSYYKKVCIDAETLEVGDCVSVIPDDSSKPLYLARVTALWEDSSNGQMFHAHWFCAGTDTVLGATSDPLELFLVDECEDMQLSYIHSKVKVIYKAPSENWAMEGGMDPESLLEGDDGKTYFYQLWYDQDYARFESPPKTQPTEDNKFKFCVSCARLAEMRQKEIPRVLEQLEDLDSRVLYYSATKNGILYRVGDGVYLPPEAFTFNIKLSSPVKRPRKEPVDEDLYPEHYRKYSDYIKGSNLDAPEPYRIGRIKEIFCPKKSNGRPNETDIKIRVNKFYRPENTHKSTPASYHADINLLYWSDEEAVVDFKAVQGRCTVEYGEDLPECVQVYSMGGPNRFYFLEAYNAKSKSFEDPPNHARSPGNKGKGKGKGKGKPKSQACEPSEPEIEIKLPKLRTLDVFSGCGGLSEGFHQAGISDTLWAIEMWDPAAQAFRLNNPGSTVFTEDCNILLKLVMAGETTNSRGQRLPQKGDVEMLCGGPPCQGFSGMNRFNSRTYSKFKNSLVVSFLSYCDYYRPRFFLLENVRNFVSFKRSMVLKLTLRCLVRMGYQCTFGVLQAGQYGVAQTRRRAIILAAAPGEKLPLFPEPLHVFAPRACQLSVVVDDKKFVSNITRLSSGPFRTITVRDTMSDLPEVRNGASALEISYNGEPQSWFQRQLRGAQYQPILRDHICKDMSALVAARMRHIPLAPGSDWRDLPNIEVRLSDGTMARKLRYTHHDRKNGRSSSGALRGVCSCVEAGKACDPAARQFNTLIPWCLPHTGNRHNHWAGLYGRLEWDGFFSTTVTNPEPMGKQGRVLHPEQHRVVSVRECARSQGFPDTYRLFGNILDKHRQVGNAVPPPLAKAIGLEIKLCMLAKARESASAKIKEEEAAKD

Regarding `c1ccc(CCCNc2ncnc3cc(OCC4CCN(CCNc5ccnc6ccccc56)C4)ccc23)cc1` (centres unmarked) [Compound AM, 4-((3-phenylpropyl)amino)-7-((1-(2-(quinolin-4-ylamino)ethyl)pyrrolidin-3-yl)methoxy)quinazoline], in assay [1], the inhibition – broadly, the share of the control response that was lost under treatment – at 100 µM is 100%. Also, the inhibition at 32 µM in assay [2] was determined as 81%.

Regarding `c1ccc(CCCNc2ncnc3cc(OCCCNCCCNc4ccnc5ccccc45)ccc23)cc1` [Compound A], in assay [1], the inhibition at 100 µM stood at 97%. Besides, in assay [2], the inhibition at 10 µM was 60%; testing at 20 µM gave an inhibition of 76%; the inhibition at 32 µM was 85%; the midpoint of the response, the EC50, lay at 10 µM.

`c1ccc(CCCNc2ncnc3cc(OCCCNCCCCNc4ccnc5ccccc45)ccc23)cc1` [Compound B]: the inhibition at 100 µM in assay [1] amounted to 86%. In assay [2], the inhibition at 20 µM came to 67%.

With `c1ccc(CCCNc2ncnc3cc(OCCCNCCNc4ccnc5ccccc45)ccc23)cc1` [Compound F, 7-(3-((2-(quinolin-4-ylamino)ethyl)amino)propyloxy)-4-((3-phenylpropyl)amino)quinazoline], in assay [1], the inhibition at 100 µM was found to be 90%. In assay [2], the inhibition at 10 µM came out at 59%; the inhibition at 20 µM is 76%; the inhibition at 32 µM is 87%; the EC50 – broadly, the concentration at which the effect is half-maximal – was 10 µM.

Consider `CCCNc1ncnc2cc(OCC3CCN(CCNc4ccnc5ccccc45)CC3)ccc12` [Compound H, 4-propylamino-7-((1-(2-(quinolin-4-ylamino)ethyl)piperidin-4-yl)methoxy)quinazoline], for which the inhibition at 100 µM in assay [1] turned out to be 94.9%. Besides, in assay [2], the inhibition at 10 µM is 28%, the inhibition at 20 µM turned out to be 44% and the inhibition at 32 µM came to 69%.

Consider `Nc1ncnc2cc(OCC3CCN(CCNc4ccnc5ccccc45)CC3)ccc12` [Compound I, 4-amino-7-((1-(2-(quinolin-4-ylamino)ethyl)piperidin-4-yl)methoxy)quinazoline], for which the inhibition at 100 µM in assay [1] amounted to 99.3%. In assay [2], the inhibition at 10 µM stood at 16%, the inhibition at 20 µM was found to be 32% and the inhibition at 32 µM was 68%.

With `c1ccc(CCCNc2ncnc3cc(OCC4CCN(CCNc5ccncc5)CC4)ccc23)cc1` [Compound J, 4-(3-phenylpropylamino)-7-((1-(2-(pyridin-4-ylamino)ethyl)piperidin-4-yl)methoxy)quinazoline], the inhibition at 100 µM in assay [1] is 33.7%. In addition, in assay [2], the inhibition at 10 µM stood at 47%, testing at 20 µM gave an inhibition of 65% and the inhibition at 32 µM was 72%.

On to `O=c1c2ccc(OCC3CCN(CCNc4ccnc5ccccc45)CC3)cc2ncn1CCNc1ccnc2ccccc12` [Compound M], for which, in assay [1], the inhibition at 32 µM worked out at 100% and the inhibition at 100 µM turned out to be 100%. Further, in assay [2], the inhibition at 10 µM worked out at 89%, the inhibition at 32 µM worked out at 91% and the EC50 was 1.1 µM. For the same compound, the EC50 in assay [3] was 0.7 µM. For the same compound, in assay [4], the EC50 was determined as 1.3 µM.

For `c1ccc(-c2ccc(CNc3ncnc4cc(OCC5CCN(CCNc6ccnc7ccccc67)CC5)ccc34)cc2)cc1` [Compound N, 4-([1,1′-biphenyl]-4-ylmethylamino)-7-((1-(2-(quinolin-4-ylamino)ethyl)piperidin-4-yl)methoxy)quinazoline], in assay [1], the inhibition at 32 µM was determined as 24% and the inhibition at 100 µM amounted to 69%. Besides, in assay [2], the inhibition at 10 µM was 86% and the inhibition at 32 µM was 83%. In addition, the EC50 in assay [4] was 0.4 µM.

In the case of `c1ccc(CCNc2ncnc3cc(OCC4CCN(CCNc5ccnc6ccccc56)CC4)ccc23)cc1` [Compound O, 4-(3-phenethylamino)-7-((1-(2-(quinolin-4-ylamino)ethyl)piperidin-4-yl)methoxy)quinazoline], in assay [1], the inhibition at 32 µM worked out at 38% and the inhibition at 100 µM was 98.4%. Further, in assay [2], the inhibition at 10 µM worked out at 80% and the inhibition at 32 µM was 99%.

Turning to `c1ccc(CNc2ncnc3cc(OCC4CCN(CCNc5ccnc6ccccc56)CC4)ccc23)cc1` [Compound P, 4-(3-benzylamino)-7-((1-(2-(quinolin-4-ylamino)ethyl)piperidin-4-yl)methoxy)quinazoline], in assay [1], the inhibition at 32 µM is 26% and the inhibition at 100 µM stood at 22%. Further, in assay [2], the inhibition at 10 µM was 43%, the inhibition at 32 µM came out at 81% and the EC50 came out at 13.1 µM.

As to `Cc1cc(NCCNc2ncnc3cc(OCC4CCN(CCNc5ccnc6ccccc56)CC4)ccc23)nc(N)n1` [Compound Q, 6-methyl-N^4-(2-((7-((1-(2-(quinolin-4-ylamino)ethyl)piperidin-4-yl)methoxy)quinazolin-4-yl)amino)ethyl)pyrimidine-2,4-diamine], in assay [1], the inhibition at 32 µM came to 74% and the inhibition at 100 µM turned out to be 99.6%. In addition, in assay [2], the inhibition at 10 µM was found to be 61%, the inhibition at 32 µM came to 68% and a half-maximal effect (EC50) was put at 5.7 µM.

As for `O=c1c2ccc(OCC3CCN(CCNc4ccnc5ccccc45)CC3)cc2ncn1CCCc1ccccc1` [Compound R, 3-(3-phenylpropyl)-7-((1-(2-(quinolin-4-ylamino)ethyl)piperidin-4-yl)methoxy)quinazolinone], in assay [1], the inhibition at 32 µM was 45% and the inhibition at 100 µM came out at 98.4%. Further, in assay [2], the inhibition at 10 µM came out at 65% and the inhibition at 32 µM was 99%.

Consider `c1ccc(CCCNc2ncnc3cc(OCCNc4ccnc5ccccc45)ccc23)cc1` [Compound S, 4-(3-phenylpropylamino)-7-(2-(quinolin-4-ylamino)ethoxy)quinazoline], for which, in assay [1], the inhibition at 100 µM is 90%. Further, in assay [2], the inhibition at 10 µM stood at 52% and the inhibition at 32 µM was 95%.
